Reference: patent US20160045498A1, “METHODS OF TREATING DISEASES CHARACTERIZED BY EXCESSIVE WNT SIGNALLING” (THE WALTER AND ELIZA HALL INSTITUTE OF MEDICAL RESEARCH, priority 2013, published 2016)

How the values were obtained:
intestinal tumours = experiment: Intestinal tumour burden after tamoxifen-induced conditional Apc deletion in Lgr5CreERT2;Apcfl/fl mice; format: in vivo; settings: Lgr5CreERT2;Apcfl/fl mice, CYT387 30 mg/kg oral gavage
Protocol: e Quantification of intestinal tumour burden of mice using the Metamorph analysis tool (Barker et al., 2009) after tamoxifen-induced conditional Apc deletion in adult Lgr5^CreERT2;Apc^fl/fl mice that also received daily administration of AZD1480 (30 mg/kg) or vehicle during this time. (*p≦0.04; n=3 mice).
d Intestinal tumour burden 5 weeks after tamoxifen-induced conditional Apc deletion in adult Lgr5^CreERT2;Apc^fl/fl mice that also received daily administration of AZD1480 (Jak2i; 30 mg/kg) or vehicle during this time. Higher magnifications of the boxed areas are provided and arrows point to tubular adenomas whilst arrowheads point to micro-adenomas. Scale bars=1 mm.
10 week old Lgr5CreERT2;Apcfl/fl mice received four i.p injections with tamoxifen (10 mg/ml; 300 ul, 200 ul, 200 ul, 200 ul) over four consecutive days. Three days after the last injection, mice received daily oral gavages with either vehicle (tap water, pH 2.0) or CYT387 (30 mg/kg) for four weeks. Regime was 5 days treatment followed by 2 days off treatment.
Hematoxilin and Eosin-stained sections were scanned using an Aperio ScanScope XT (Aperio, USA) pathology slide scanner with a 20x PlanApo NA0.6 objective and areas of interest were extracted using Aperio ImageScope software v11.1.2.760. The area of individual tumors was outlined using MetaMorph v7.7.7 and standardized against the entire length of the colon section as described (Barker et al., 2009).

intestinal organoids = experiment: Organoid culture, crypt formation; format: cell-based, mice; settings: S3I-201 7.5 μM from day 3 after seeding
Protocol: […] Arrows point to budding crypt-like structures. Scale bar=50 μm.
d Enumeration of crypts on individual organoids from experiment illustrated in FIG. 1c. (*p≦0.018; Two-sided t-test on triplicate cultures and repeated).
Crypts from small intestines were harvested, washed and were resuspended at 2000 crypts/ml of matrigel (BD Biosciences) and 50 μL was dispensed in each well of a 24-well plate. Once the matrigel had set, medium was added and the organoids cultured for seven days as described (Sato et al., 2009). Experiments were performed in triplicates and repeated.
Organoid cultures were imaged on a Nikon Ti-E microscope using DIC contrast with a 10x PlanApo NA0.3 objective. A focal stack of images was collected (10 μm apart) and processed through the Best Focus function of MetaMorph v7.7.7 (Molecular Devices, USA) to generate the final image of individual Organoids.

SW480^APC cells [1] = experiment: Soft agar colony growth assay, SW480APC; format: cell-based, human; settings: 10 days, AZD1480 1 μM, S3I-201 50 μM, IL11 10 ng/ml
Protocol: (§1) e Photograph of SW480 and SW480^APC CRC cells grown for 10 days under colony forming conditions in soft agar in the presence of vehicle or 1 μM of Jak2 inhibitor AZD1480 (Jak2i) (Scale bar=200 μm)
(§2) f Colony forming capacity of an isogenic pair of SW480 cells scored 10 days after the indicated treatment. (*p≦0.04; triplicate cultures and repeated).
(§3) SW480 and SW480^APC cells (Faux et al., 2004) were seeded in 2 ml of RPMI media supplemented with 10% FBS and 1% penicillin/streptomycin in 35 mm culture dishes at a density of 2×10^5 cells per dish. Three days later cultures were exposed to AZD1480 (1 μM) for 15 min. Co-immunofluorescence was then performed with antibodies to rabbit phospho-Stat3 (Tyr705, Santa Cruz #9134s, 1:200 dilution) and mouse β-catenin (Transduction Laboratories, 1:400). Colony formation assays of SW480 cells in soft agar were performed as described (Faux et al., 2004) in the presence of either AZD1480, (1 μM), the Stat3 inhibitor S3I-201 (Biovision, 50 μM) or recombinant human IL11 (Genetics Institute, 10 ng/ml). All experiments were performed in triplicates and repeated at least once. Vehicle was methylcellulose.

SW480 cells [2] = experiment: Soft agar colony growth assay, SW480; format: cell-based, human; settings: SW480, 10 days; AZD1480 1 μM, S3I-201 50 μM, IL11 10 ng/ml
Protocol: as §1, §2, §3

TYK2 = TYK2 (Homo sapiens, UniProt P29597); settings: WO2012062704; cited from earlier work
SW480^APC cells [3] = experiment: p-STAT3 immunofluorescence and SOCS3 RT-qPCR in SW480APC cells; format: cell-based, human; settings: RT-qPCR, AZD1480 1 μM, IL11 10 ng/ml
Protocol: (§4) d Immunofluorescence staining for β-CATENIN or tyrosine-705 phosphorylated STAT3 in an isogenic pair of SW480 cells grown in the presence of 1 μM AZD1480 (Jak2i) or vehicle. SW480 cells are APC mutant and lack expression of functional APC protein, while SW480^APC cells have been reconstituted to express wild-type APC. Scale bar=20 μm.
(§5) g RT-qPCR expression analysis for the STAT3 target gene SOCS3 in SW480 and SW480^APC CRC cells grown for 10 days under colony forming conditions in soft agar in the presence of the indicated treatment. Expression in the vehicle-treated cultures was arbitrarily set as 1. (*p≦0.04; triplicate cultures in each of two repeats).
as §3
(§6) Gene expression analysis by RT-qPCR was performed using the SybrGreen method (ABI) as described previously (Phesse et al., 2008). Fold change was calculated using the 2^−ΔΔCT method (Livak et al., 2001). Protein expression was analysed by Western blot by transferring SDS-PAGE separated protein lysates to nitrocellulose membrane and blocked either in 5% non-fat milk powder and probed with antibodies detecting p16 (Santa Cruz; #sc-467), Bmi1 (Millipore #[…]), Actin (Sigma; #A2066) or Gapdh (Santa Cruz; #sc-69778). All antibodies were diluted 1:1000 in BSA or non-fat milk powder and incubations were performed overnight.

IECs = experiment: RT-qPCR of IECs after i.p. injection of recombinant IL-11; format: in vivo; settings: gp130^F/F mice, 30 minutes after i.p. 5 μg recombinant IL-11
Protocol: a RT-qPCR expression analysis for Socs3 and Bmi1 in IECs isolated from gp130^F/F mice 30 minutes after an i.p. injection of 5 μg of recombinant IL-11 (p=0.04; n=3 mice).
as §6

SW480 cells [4] = experiment: p-STAT3 / β-CATENIN immunofluorescence and SOCS3 RT-qPCR in SW480 cells; format: cell-based, human; settings: SW480, RT-qPCR; AZD1480 1 μM, IL11 10 ng/ml
Protocol: as §4, §5, §3, §6

Sequence of TYK2 (P29597 whole entry, species assumed): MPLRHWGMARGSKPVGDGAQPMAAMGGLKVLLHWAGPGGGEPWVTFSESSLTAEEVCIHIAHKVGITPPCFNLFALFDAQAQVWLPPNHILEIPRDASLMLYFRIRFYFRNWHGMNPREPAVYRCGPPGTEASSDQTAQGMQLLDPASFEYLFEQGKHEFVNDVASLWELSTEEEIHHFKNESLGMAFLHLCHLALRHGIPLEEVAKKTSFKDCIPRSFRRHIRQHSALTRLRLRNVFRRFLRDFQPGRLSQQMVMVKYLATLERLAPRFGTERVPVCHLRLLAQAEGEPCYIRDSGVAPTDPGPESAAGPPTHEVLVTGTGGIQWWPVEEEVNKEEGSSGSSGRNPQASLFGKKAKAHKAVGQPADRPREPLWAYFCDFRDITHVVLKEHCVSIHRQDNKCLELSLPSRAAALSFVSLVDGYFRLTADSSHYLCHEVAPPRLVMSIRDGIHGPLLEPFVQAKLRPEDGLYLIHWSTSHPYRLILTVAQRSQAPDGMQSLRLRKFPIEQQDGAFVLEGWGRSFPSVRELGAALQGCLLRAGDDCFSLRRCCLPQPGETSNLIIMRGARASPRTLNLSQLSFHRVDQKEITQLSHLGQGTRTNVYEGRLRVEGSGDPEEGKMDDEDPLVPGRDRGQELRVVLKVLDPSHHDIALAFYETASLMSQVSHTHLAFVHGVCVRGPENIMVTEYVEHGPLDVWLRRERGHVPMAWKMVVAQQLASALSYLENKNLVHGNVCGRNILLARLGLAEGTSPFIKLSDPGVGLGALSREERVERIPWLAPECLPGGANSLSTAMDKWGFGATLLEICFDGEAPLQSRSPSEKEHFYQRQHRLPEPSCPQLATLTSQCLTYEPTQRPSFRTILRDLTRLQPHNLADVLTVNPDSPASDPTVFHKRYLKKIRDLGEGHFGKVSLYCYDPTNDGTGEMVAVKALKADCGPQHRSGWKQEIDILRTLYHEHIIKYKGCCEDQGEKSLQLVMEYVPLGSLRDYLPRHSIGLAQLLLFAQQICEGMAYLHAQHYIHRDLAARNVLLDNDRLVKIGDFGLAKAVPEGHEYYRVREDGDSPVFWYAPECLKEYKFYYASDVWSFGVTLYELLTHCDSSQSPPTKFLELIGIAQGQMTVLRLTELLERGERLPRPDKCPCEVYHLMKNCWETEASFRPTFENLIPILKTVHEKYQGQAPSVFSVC

N#CCNC(=O)c1ccc(-c2ccnc(Nc3ccc(N4CCOCC4)cc3)n2)cc1 [CYT387]
morphology of lesions (intestinal tumours; 4 weeks): retained the morphology of the growth arrested microadenomas
intestinal tumour burden (histological assessment) (intestinal tumours; 4 weeks (5 days on, 2 off), vehicle: large tubular adenomas): few small emerging lesion

Cc1ccc(S(=O)(=O)OCC(=O)Nc2ccc(C(=O)O)c(O)c2)cc1 [S3I-201]
crypt formation of organoids (intestinal organoids): reduced
colony formation in soft agar (SW480^APC cells [1]): did not affect colony formation
colony formation in soft agar (SW480 cells [2]): strongly impaired

COc1ccc(-c2nc(NC(=O)C3CC3)ncc2C)cc1F
selectivity for TYK2 (TYK2): > 100 fold

B1: IL-11: recombinant gp130 cytokine IL-11 (Genetics Institute) (protein, UniProt P20809 22-199, looked up)
Interleukin-11: PGPPPGPPRVSPDPRAELDSTVLLTRSLLADTRQLAAQLRDKFPADGDHNLDSLPTLAMSAGALGALQLPGVLTRLRADLLSYLRHVQWLRRAGGSSLKTLEPELGTLQARLDRLLRRLQLLMSRLALPQPPPDPPAPPLAPPSSAWGGIRAAHAILGGLHLTLDWAVRGLLLLKTRL
SOCS3 expression (SW480^APC cells [3]): increased SOCS3 expression
Bmi1 expression in IECs (IECs): rapidly induced
Socs3 expression in IECs (IECs): rapidly induced
SOCS3 expression (SW480 cells [4]): increased SOCS3 expression
colony formation in soft agar (SW480^APC cells [1]): enhanced colony formation
colony formation in soft agar (SW480 cells [2]): enhanced colony formation
